From patent publication US11730720B2, “ALK5 inhibitors” (THERAVANCE BIOPHARMA R&D IP, LLC, priority 2018, dated 2023)

Key:
[1] = biological target: T1, recombinant human ALK5 (TGF-βR1) protein (Homo sapiens, UniProt P36897); experiment: Biochemical ALK5 (TGF-βR1) assay to measure pKi (LANCE Ultra ULight kinase assay); conditions: apparent pKi, converted from pIC50 using the Cheng-Prusoff equation
T1 construct: purchased Life Technologies PR9075A
T1 sequence (P36897 34-503): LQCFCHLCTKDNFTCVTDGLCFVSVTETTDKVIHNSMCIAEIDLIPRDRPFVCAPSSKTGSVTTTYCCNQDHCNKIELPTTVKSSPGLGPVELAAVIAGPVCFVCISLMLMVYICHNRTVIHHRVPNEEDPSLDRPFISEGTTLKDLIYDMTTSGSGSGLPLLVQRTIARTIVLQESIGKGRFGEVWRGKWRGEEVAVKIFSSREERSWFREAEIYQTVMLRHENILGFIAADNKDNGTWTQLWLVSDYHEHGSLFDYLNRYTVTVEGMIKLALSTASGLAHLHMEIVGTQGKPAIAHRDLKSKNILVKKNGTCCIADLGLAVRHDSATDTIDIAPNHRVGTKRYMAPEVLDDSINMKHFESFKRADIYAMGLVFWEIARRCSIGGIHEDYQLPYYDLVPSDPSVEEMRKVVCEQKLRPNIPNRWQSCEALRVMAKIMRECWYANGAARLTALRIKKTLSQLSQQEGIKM
Method in brief: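 TR-FRET kinase format: compound dose range 10 μM–25 pM equilibrated 60 min with human ALK5 and ULight-labelled topoisomerase 2α peptide in HEPES/MgCl2 buffer pH 7.5 with DTT. Reaction started with ATP (125 μM stock, 5× final), 60 min at 37° C, stopped with EDTA/Eu-anti-phospho antibody; pKi derived from pIC50 via Cheng-Prusoff.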

[2] = system: TGF-β-stimulated SMAD3 phosphorylation in BEAS-2B cells; experiment: Cellular ALK5 potency assay, inhibition of TGF-β stimulated pSMAD3 formation in BEAS-2B cells; type: cell-based; conditions: Homo sapiens, inhibition of TGF-β (10 ng/mL) stimulated pSMAD3 formation, 1 hour compound incubation, read-out: BEAS2B pIC50 (converted)
Method in brief: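 Phospho-SMAD3 was quantified by AlphaLISA in lysates of human lung epithelial BEAS-2B cells. Compound was added 1 h (37 °C, HEPES/BSA-supplemented HBSS) before a 30 min challenge with 10 ng/mL TGF-β. Values are pIC50 relative to stimulated cells without compound.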

Structure (SMILES)	Ki [1] [nM]	IC50 [2] [nM]
NC1CCN(c2cnc3ccc(-c4c[nH]nc4-c4ccc(F)c(F)c4)nc3c2)C1 (stereo not shown) [Compound 8-9, 1-[6-[3-(3,4-difluorophenyl)-1H-pyrazol-4-yl]-1,5-naphthyridin-3-yl]pyrrolidin-3-amine]	0.398 to 3.16	25.1 to 158
CNCCn1cc(-c2cnc3ccc(-c4c(-c5cc(Cl)ccc5F)nc5ccccn45)cc3c2)cn1 [Compound 19-1, 2-(4-(6-(2-(5-chloro-2-fluorophenyl)imidazo[1,2-a]pyridin-3-yl)quinolin-3-yl)-1H-pyrazol-1-yl)-N-methylethan-1-amine]	0.0398 to 0.316	25.1 to 158
Fc1ccc(Cl)cc1-c1n[nH]cc1-c1ccc2ncc(NCC3CNC3)cc2n1 [Compound 1-28, N-(azetidin-3-ylmethyl)-6-[3-(5-chloro-2-fluoro-phenyl)-1H-pyrazol-4-yl]-1,5-naphthyridin-3-amine]	0.0398 to 0.316	25.1 to 158
Fc1ccc(Cl)cc1-c1nc2ccccn2c1-c1ccc2ncc(-c3nc4n(n3)CCNC4)cc2n1 [Compound 3-9, 2-[2-(5-chloro-2-fluoro-phenyl)imidazo[1,2-a]pyridin-3-yl]-7-(5,6,7,8-tetrahydro-[1,2,4]triazolo[1,5-a]pyrazin-2-yl)-1,5-naphthyridine]	0.0398 to 0.316	25.1 to 158
COCc1cccc(-c2n[nH]cc2-c2ccc3ncc(C4=CCC(N(C)C)CC4)cc3n2)c1 (stereo not shown) [Compound 14-14, 4-(6-(3-(3-(methoxymethyl)phenyl)-1H-pyrazol-4-yl)-1,5-naphthyridin-3-yl)-N,N-dimethylcyclohex-3-en-1-amine]	0.0398 to 0.316	25.1 to 158
Fc1ccc(Cl)cc1-c1[nH]cnc1-c1ccc2ncc(N3CCn4nc(C5=CCNC5)nc4C3)cc2n1 [Compound 2-14, 2-(5-(5-chloro-2-fluorophenyl)-1H-imidazol-4-yl)-7-(2-(2,5-dihydro-1H-pyrrol-3-yl)-5,6-dihydro-[1,2,4]triazolo[1,5-a]pyrazin-7(8H)-yl)-1,5-naphthyridine]	0.0398 to 0.316	200 to 1260
CNCCn1ccc(-c2cnc3ccc(-c4nc[nH]c4-c4cc(Cl)ccc4F)nc3c2)n1 [Compound 2-16, 2-(3-(6-(5-(5-chloro-2-fluorophenyl)-1H-imidazol-4-yl)-1,5-naphthyridin-3-yl)-1H-pyrazol-1-yl)-N-methylethan-1-amine]	0.0398 to 0.316	25.1 to 158
CN(C)C1CCN(c2cnc3ccc(-c4nc[nH]c4-c4cc(Cl)ccc4F)nc3c2)CC1 [Compound 2-6, 1-(6-(5-(5-chloro-2-fluorophenyl)-1H-imidazol-4-yl)-1,5-naphthyridin-3-yl)-N,N-dimethylpiperidin-4-amine]	0.0398 to 0.316	25.1 to 158
CC(CO)N1CCN(CCNc2cnc3ccc(-c4c[nH]nc4-c4cc(Cl)c(F)cc4F)nc3c2)CC1 (stereo not shown) [Compound 6-72, 2-[4-[2-[[6-[3-(5-chloro-2,4-difluoro-phenyl)-1H-pyrazol-4-yl]-1,5-naphthyridin-3-yl]amino]ethyl]piperazin-1-yl]propan-1-ol]	0.0398 to 0.316	25.1 to 158
Fc1ccc(Cl)cc1-c1n[nH]cc1-c1ccc2ncc(N3CC4CNC4C3)cc2n1 (stereo not shown) [Compound 1-64, 2-[3-(5-chloro-2-fluoro-phenyl)-1H-pyrazol-4-yl]-7-(3,6-diazabicyclo[3.2.0]heptan-3-yl)-1,5-naphthyridine]	0.0398 to 0.316	≤ 20
COC(=O)[C@H]1CN(c2cnc3ccc(-c4c[nH]nc4-c4cc(Cl)ccc4F)nc3c2)CCN1CCN [Compound 1-134, methyl (2R)-1-(2-aminoethyl)-4-[6-[3-(5-chloro-2-fluoro-phenyl)-1H-pyrazol-4-yl]-1,5-naphthyridin-3-yl]piperazine-2-carboxylate]	0.398 to 3.16	25.1 to 158
CN1CCN(C2CCN(c3cnc4ccc(-c5c[nH]nc5-c5cc(Cl)ccc5F)nc4c3)CC2)CC1 [Compound 1-83, 2-[3-(5-chloro-2-fluoro-phenyl)-1H-pyrazol-4-yl]-7-[4-(4-methylpiperazin-1-yl)-1-piperidyl]-1,5-naphthyridine]	≤ 0.0316	≤ 20
Fc1ccc(Cl)cc1-c1n[nH]cc1-c1ccc2ncc(-c3nnn4c3CNCC4)cc2n1 [Compound 1-109, 2-[3-(5-chloro-2-fluoro-phenyl)-1H-pyrazol-4-yl]-7-(4,5,6,7-tetrahydrotriazolo[1,5-a]pyrazin-3-yl)-1,5-naphthyridine]	0.0398 to 0.316	25.1 to 158
O=C(O)C1CN(CCNc2cnc3ccc(-c4c[nH]nc4-c4cc(Cl)ccc4F)nc3c2)CCN1 (stereo not shown) [Compound 1-133, 4-[2-[[6-[3-(5-chloro-2-fluoro-phenyl)-1H-pyrazol-4-yl]-1,5-naphthyridin-3-yl]amino]ethyl]piperazine-2-carboxylic acid]	0.0398 to 0.316	200 to 1260
